Patent US9096832B2, “Differentiation of human embryonic stem cells” (LifeScan, Inc., priority 2007, dated 2015)

Columns and labels:
[1] = test system: human embryonic stem cell line H9; experiment: PCR of endoderm, extraembryonic, mesoderm and ectoderm markers after activin A treatment on MEFs; type: cell-based
Text: (§1) The level of expression of definitive endoderm markers was examined by PCR (FIG. 1), FACS (results summarized in Table II), and immunohistochemistry (FIG. 2).
Cells were harvested at the time points indicated in FIG. 3 and assayed by PCR for the expression of genes shown (FIGS. 3, 4 and 5).
RNA extraction, purification, and CDNA synthesis: RNA samples were purified by binding to a silica-gel membrane (Rneasy Mini Kit, Qiagen, CA) in the presence of an ethanol-containing, high-salt buffer followed by washing to remove contaminants. The RNA was further purified using a TURBO DNA-free kit (Ambion, INC), and high-quality RNA was then eluted in water. Yield and purity were assessed by A260 and A280 readings on a spectrophotometer. cDNA copies were made from purified RNA using an ABI (ABI, CA) high capacity cDNA archive kit.
(§2) Final data were expressed relative to a calibrator sample.

[2] = test system: human embryonic stem cell line H7; experiment: FACS of protein markers after activin A treatment (Table IIB); type: cell-based
Text: as §1
(§3) CXCR4 positive cells were also highly positive for C-kit, EPCAM, CD99, and negative for CD9. The expression pattern for these markers was consistent among all three hES cell lines examined (Table IIB for H7 and Table IIC for H1). […] In parallel, almost 100% of the differentiated cells were […] (FIG. 2).
(§4) Adhered cells were removed from culture plates by five-minute incubation with TrypLE™ Express solution (Invitrogen, CA). Released cells were resuspended in human embryonic stem cell culture medium and recovered by centrifugation, followed by washing and resuspending the cells in a staining buffer consisting of 2% BSA, 0.05% sodium azide in PBS (Sigma, MO). As appropriate, the cells were Fc-receptor blocked for 15 minutes using a 0.1% γ-globulin (Sigma) solution. […] Controls included appropriate isotype matched antibodies, unstained cells, and cells stained only with secondary conjugated antibody. All incubations with antibodies were performed for 30 mins at 4° C. after which the cells were washed with the staining buffer. Samples that were stained with unconjugated primary antibodies were incubated for an additional 30 mins at 4° C. with secondary conjugated PE or —APC labeled antibodies. See Table I for a list of secondary antibodies used. Washed cells were pelleted and resuspended in the staining buffer, and the cell surface molecules were identified using a FACS Array (BD Biosciences) instrument, collecting at least 10,000 events.

[3] = test system: human embryonic stem cell line H9; experiment: Formation of pancreatic endocrine cells with gamma-secretase inhibitor L-685,458 (PCR); type: cell-based; settings: activin A alone or in combination with retinoic acid and FGFs
Procedure: After this time interval, the cells were then treated for six days with combinations of retinoic acid and FGF as outlined in Example 2, then the culture medium was removed and replaced with medium comprising DMEM/F12 with 2% FBS, containing the γ-secretase inhibitors L-685,458 at 10 μM for three days.
as §2

[4] = test system: H9P49 and H1P46 embryonic stem cells; experiment: Definitive endoderm on MATRIGEL: effective dose of activin A with GSK-3B inhibitor or Wnt-3a; type: cell-based, human
Text: FIG. 31 panels a-d is for H9P49 cells and panels e-f is for H1P46 cells.

[5] = test system: human embryonic stem cell line H9; experiment: FACS of protein markers after activin A treatment, hES cells on mouse embryonic fibroblasts (Table IIA); type: cell-based; settings: for CD9 protein expression / CXCR4 protein expression / ECAM protein expression / NCAM protein expression / SSEA-3 protein expression: H9, FACS
Text: as §1, §3, §4

[6] = test system: human embryonic stem cell line H9; settings: activin A or retinoic acid alone
Procedure: Cultures were harvested and samples of mRNA were collected for analysis.
Cells seeded on 0.1% Matrigel (BD) coated dishes were fixed with 4% paraformaldheyde for 20 min at room temperature. Fixed cells were blocked for 1 h at room temperature with PBS/0.1%BSA/10% normal chick serum /0.5% Triton X-100 and then incubated overnight with primary antibodies in PBS/0.1%BSA/10% normal chick serum at 4° C. After three washes in PBS/0.1% BSA, fluorescent secondary antibodies at a 1:100 dilution in PBS were incubated with cells for 1 h at room temperature to allow binding. Control samples included reactions where the primary antibody was omitted or where the primary antibody was replaced with corresponding matched negative control immunoglobulins at the same concentration as the primary antibodies. […]
Real-time PCR amplification and quantitative analysis: Unless otherwise stated, all reagents were purchased from Applied Biosystems. […] For each primer/probe set, a Ct value was determined as the cycle number at which the fluorescence intensity reached a specific value in the middle of the exponential region of amplification. Relative gene expression levels were calculated using the comparative Ct method. […] The normalized amount of target was calculated as 2-ΔCt, assuming amplification to be 100% efficiency. […]

[7] = test system: H9P46 embryonic stem cells; experiment: Definitive endoderm on […]: effective dose of Wnt-3a (FACS, PCR, cell number); type: cell-based, human
Procedure: Control cultures were not treated with Wnt-3a. FIG. 27, panel a depicts the expression of CXCR4 by FACS at day 5 in the absence of Wnt-3a, b) 10 ng/ml Wnt-3a, c) 20 ng/ml Wnt-3a and d) 50 ng/ml Wnt-3a. In the absence of Wnt-3a the expression of CXCR4 was very low. […] Real-time PCR results (FIG. 28, panel a) also confirm this finding.
In a separate study, H9p52 cells were plated on 1:30 low growth factor […]™. For the first 2 days of the DE protocol a range of Wnt-3a doses was used: 10 ng/ml, 5 ng/ml and 1 ng/ml. […] The number of cells at the end of the experiment is noted in FIG. 28, panel c.

[8] = test system: H9P46-P48 embryonic stem cells; experiment: Definitive endoderm on […]: effect of GSK-3B inhibitor IX (FACS CXCR4, PCR); type: cell-based, human; settings: 20 ng/ml Wnt-3a or 100-1000 nM GSK-3B inhibitor, day 5
Procedure: In order to confirm that the effect of Wnt-3a was through the Wnt pathway, a GSK-3 inhibitor was used to activate the downstream targets of Wnt, such as beta catenin. […] FIG. 29, panel a depicts the expression of CXCR4 by FACS at day 5 in the absence of Wnt-3a or GSK-3B inhibitor, b) +20 ng/ml Wnt-3a, c) +1000 nM GSK-3B inhibitor IX, d) +500 nM GSK-3B inhibitor IX, e) +100 nM GSK-3B inhibitor IX, f) +10 nM GSK-3B inhibitor IX, g) +100 nM GSK-3B inhibitor IX for days 1-2, and h) +10 nM GSK-3B inhibitor IX for days 1-2.

Activin A: activin A (a member of the TGFβ superfamily), R&D Systems; 'w/o wnt' in Table VII = 100 ng/ml Activin A without Wnt3a
Oct4 expression ([1]; Activin A 100 ng/ml up to seven days): no significant decrease | Pdx1 gene expression ([1]; Activin A 100 ng/ml up to seven days, 0% to 2% serum): no Pdx1 gene expression was observed | expression of Brachyury ([1]; H9, 100 ng/ml activin A): decreased | expression of neuronal marker Zic1 ([1]; H9, 100 ng/ml activin A): no effect | expression of extraembryonic endoderm markers Sox7 and AFP ([1]; H9, 100 ng/ml activin A, 1-7 days): time-dependent decrease | anterior endoderm markers Cerberus, Otx-1 and Hex genes ([1]; H9, 100 ng/ml activin A, three and five days): significant up regulation | expression of CXCR4, GATA4, HNF-3beta, Mixl1 and Sox-17 mRNA ([1]; H9, 100 ng/ml activin A, two, five and eight days): time-dependent increase | CXCR4+ ([2]; 1-day AA 100 ng/ml): 6% | CXCR4+ C-Kit+ ([2]; 1-day AA 100 ng/ml): 2.97% | CXCR4+ CD9+ ([2]; 1-day AA 100 ng/ml): 8.13% | CXCR4+ EPCAM+ ([2]; 1-day AA 100 ng/ml): 14.58% | CXCR4+ ([2]; 3-day AA 100 ng/ml): 38% | CXCR4+ C-Kit+ ([2]; 3-day AA 100 ng/ml): 31.56% | CXCR4+ CD9+ ([2]; 3-day AA 100 ng/ml): 24.11% | CXCR4+ EPCAM+ ([2]; 3-day AA 100 ng/ml): 36.67% | CXCR4+ ([2]; 5-day AA 100 ng/ml): 65.5% | CXCR4+ C-Kit+ ([2]; 5-day AA 100 ng/ml): 55.21% | CXCR4+ CD9+ ([2]; 5-day AA 100 ng/ml): 2.1% | CXCR4+ EPCAM+ ([2]; 5-day AA 100 ng/ml): 54.5% | expression of Ngn3 or insulin [3]: did not induce | expression of definitive endoderm markers ([4]; 50 ng/ml of AA+20 ng/ml of Wnt-3A or 100 nM GSK-3B inhibitor IX): robust expression | cell fate at lower doses of activin A ([4]; lower doses of activin A): formation of extraembryonic endoderm | expression of E-cadherin and N-cadherin ([5]; FACS, following activin A treatment): did not change | CD9 protein expression ([5]; 2-DAY activin A 100 ng/ml): 29.42% | CXCR4 protein expression ([5]; 2-DAY activin A 100 ng/ml): 20.2% | ECAM protein expression ([5]; 2-DAY activin A 100 ng/ml): 20.87% | NCAM protein expression ([5]; 2-DAY activin A 100 ng/ml): 5.04% | SSEA-3 protein expression ([5]; 2-DAY activin A 100 ng/ml): 92.14% | CD9 protein expression ([5]; 5-DAY activin A 100 ng/ml): 7.27% | CXCR4 protein expression ([5]; 5-DAY activin A 100 ng/ml): 55.26% | ECAM protein expression ([5]; 5-DAY activin A 100 ng/ml): 14.17% | NCAM protein expression ([5]; 5-DAY activin A 100 ng/ml): 21.1% | SSEA-3 protein expression ([5]; 5-DAY activin A 100 ng/ml): 42.9% | CD9 protein expression ([5]; 8-DAY activin A 100 ng/ml): 4.1% | CXCR4 protein expression ([5]; 8-DAY activin A 100 ng/ml): 56.92% | ECAM protein expression ([5]; 8-DAY activin A 100 ng/ml): 1.02% | NCAM protein expression ([5]; 8-DAY activin A 100 ng/ml): 8.86% | SSEA-3 protein expression ([5]; 8-DAY activin A 100 ng/ml): 22.05% | CXCR4 protein by FACS analysis ([5]; following activin A treatment): increase | expression of Pdx1 [6]: did not induce

Wnt-3a
number of CXCR4 positive cells ([7]; 10-50 ng/ml Wnt-3a, day 5): significantly increased | Wnt3a dose sufficient to reach optimal cell expansion and definitive endoderm differentiation ([7]; for 2 days, H9p52 on 1:30 low growth factor MATRIGEL): 10 ng/mL | number of CXCR4 positive cells [8]: significantly increased
